Test results: ChEMBL document CHEMBL1201862, “PubChem BioAssay data set” (2004)
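How tested: cells in 96-well plates exposed to compound for 48 hours at five concentrations. GI50 marks 50% less growth.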 Calls of active or inactive are those of the source. Rule as the data show it: active = GI50 up to about 1.1 µM and inactive = higher.

How the values were obtained:
Test in all cases: inhibition of tumour cell growth, NCI panel, 48 h
NCI-H460 = system: NCI-H460
OVCAR-3 = system: OVCAR-3
KM12 = system: KM12
HT-29 = system: HT-29
UACC-257 = system: UACC-257
A498 = system: A498
SNB-75 = system: SNB-75
K562 = system: K562
IGROV-1 = system: IGROV-1
OVCAR-8 = system: OVCAR-8
SF-268 = system: SF-268
HL-60 = system: HL-60
UO-31 = system: UO-31
MOLT-4 = system: MOLT-4
SK-MEL-2 = system: SK-MEL-2
U-251 = system: U-251
CCRF-CEM = system: CCRF-CEM
CAKI-1 = system: CAKI-1
MDA-MB-435 = system: MDA-MB-435
MDA-N = system: MDA-N

Structure (SMILES) | GI50 (NCI-H460) | GI50 (OVCAR-3) | GI50 (KM12) | GI50 (HT-29) | GI50 (UACC-257) | GI50 (A498) | GI50 (SNB-75) | GI50 (K562) | GI50 (IGROV-1) | GI50 (OVCAR-8) | GI50 (SF-268) | GI50 (HL-60) | GI50 (UO-31) | GI50 (MOLT-4) | GI50 (SK-MEL-2) | GI50 (U-251) | GI50 (CCRF-CEM) | GI50 (CAKI-1) | GI50 (MDA-MB-435) | GI50 (MDA-N)
CCN1CCC(O)(c2ccc(C)cc2)C(C(=O)c2ccc(C)cc2)C1 (configuration not stated) | > 52.6 µM (inactive) | 21.9 µM (inactive) | 33.1 µM (inactive) | 19.8 µM (inactive) | 19.1 µM (inactive) | > 59.2 µM (inactive) | 71.9 µM (inactive) | 32.1 µM (inactive) | > 42.9 µM (inactive) | 25.5 µM (inactive) | > 53 µM (inactive) | 20.3 µM (inactive) | 28.2 µM (inactive) | 29 µM (inactive) | > 100 µM (inactive) | > 52.5 µM (inactive) | 18.3 µM (inactive) | 17.2 µM (inactive) |  | 
O=C(O/N=C1/CCC/C1=C\c1ccccc1)c1ccc(Cl)c(Cl)c1 | > 100 µM (inactive) | > 100 µM (inactive) | > 100 µM (inactive) | > 100 µM (inactive) | > 100 µM (inactive) | > 100 µM (inactive) | > 100 µM (inactive) | > 100 µM (inactive) | > 100 µM (inactive) | > 100 µM (inactive) | > 100 µM (inactive) | > 100 µM (inactive) | > 100 µM (inactive) | > 100 µM (inactive) | > 100 µM (inactive) | > 100 µM (inactive) | > 100 µM (inactive) | > 100 µM (inactive) |  | 
CN1C2CCC1CC(=CCOC(c1ccc(F)cc1)c1ccc(F)cc1)C2 | 17.2 µM (inactive) | 17 µM (inactive) | 15 µM (inactive) | 5.21 µM (inactive) | 16.1 µM (inactive) | 14.7 µM (inactive) | 13.8 µM (inactive) | 5.94 µM (inactive) | 15.7 µM (inactive) | 17.1 µM (inactive) | 12.9 µM (inactive) | 13.6 µM (inactive) | 9.91 µM (inactive) | 15 µM (inactive) | 19.1 µM (inactive) | 17.2 µM (inactive) | 37 µM (inactive) | 16.4 µM (inactive) | 12.8 µM (inactive) | 
COc1ccc(/C=C/C(=O)c2sc(-n3nc(-c4ccccc4)cc3-c3ccccc3)nc2C)cc1 | > 10 µM (inactive) | 62.5 µM (inactive) | 76.4 µM (inactive) | 30.5 µM (inactive) | 79.1 µM (inactive) | > 10 µM (inactive) | 8.43 µM (inactive) | 52.2 µM (inactive) | > 10 µM (inactive) | > 10 µM (inactive) | > 10 µM (inactive) | > 10 µM (inactive) | 31.6 µM (inactive) | 56.6 µM (inactive) | > 10 µM (inactive) | 62.2 µM (inactive) | > 10 µM (inactive) | 55.2 µM (inactive) |  | 
CCOC(=O)NC(C(=O)OCC)C(F)(F)F (configuration not stated) | > 100 µM (inactive) | > 100 µM (inactive) | > 100 µM (inactive) | > 100 µM (inactive) | > 100 µM (inactive) |  | > 100 µM (inactive) | > 100 µM (inactive) | > 100 µM (inactive) | > 100 µM (inactive) | > 100 µM (inactive) | 23.9 µM (inactive) | > 100 µM (inactive) | 93.8 µM (inactive) | > 100 µM (inactive) | > 100 µM (inactive) | 40.6 µM (inactive) | > 100 µM (inactive) |  | > 100 µM (inactive)
O=c1cc(NNc2ccc(F)cc2)[nH]c(=O)[nH]1 | 19.4 µM (inactive) | 16.4 µM (inactive) | 11.7 µM (inactive) | 16.9 µM (inactive) | > 100 µM (inactive) | 35.3 µM (inactive) | 12.7 µM (inactive) | 17.8 µM (inactive) | 16.6 µM (inactive) | 23.1 µM (inactive) | 20 µM (inactive) | 6.65 µM (inactive) | 17.9 µM (inactive) | 19.8 µM (inactive) | 21.4 µM (inactive) | 25.6 µM (inactive) | 12.9 µM (inactive) |  |  | 16.4 µM (inactive)
C/C(CCn1[nH]c(=O)ccc1=O)=N\N=C(N)N | > 100 µM (inactive) | > 100 µM (inactive) | > 100 µM (inactive) | > 100 µM (inactive) | > 100 µM (inactive) | > 100 µM (inactive) | > 100 µM (inactive) | > 100 µM (inactive) | > 100 µM (inactive) | > 100 µM (inactive) | > 100 µM (inactive) | > 100 µM (inactive) | > 100 µM (inactive) | > 100 µM (inactive) | > 100 µM (inactive) |  | > 100 µM (inactive) | > 100 µM (inactive) |  | 
CN(C)c1ccc2c(c1)C(=O)N(OS(=O)(=O)c1ccc([N+](=O)[O-])cc1)C2=O | 49.3 µM (inactive) | > 10 µM (inactive) | 25.1 µM (inactive) | 21.7 µM (inactive) | 25.6 µM (inactive) | 59.7 µM (inactive) | 31.6 µM (inactive) | 31.6 µM (inactive) | 19.7 µM (inactive) | 25.5 µM (inactive) | 27.2 µM (inactive) | 28.6 µM (inactive) | 23.1 µM (inactive) |  | 29.2 µM (inactive) | 18.9 µM (inactive) | 18.7 µM (inactive) | 22.4 µM (inactive) |  | 
O=C(NCc1cccnc1)C1COc2cc(-c3cc(=O)c4ccccc4o3)ccc2O1 (configuration not stated) | 51.4 µM (inactive) | > 100 µM (inactive) | > 36.1 µM (inactive) | > 87.3 µM (inactive) | 4.94 µM (inactive) | > 61.4 µM (inactive) | 3.49 µM (inactive) | > 80.2 µM (inactive) | > 66.5 µM (inactive) | 3.64 µM (inactive) | 3.89 µM (inactive) | > 46.5 µM (inactive) | > 43.9 µM (inactive) | 5.14 µM (inactive) | 3.4 µM (inactive) | 5.93 µM (inactive) | > 100 µM (inactive) | > 63.7 µM (inactive) |  | 
CC#CS(=O)(=O)c1ccccc1 | 17.5 µM (inactive) | 1.63 µM (inactive) |  | 3.67 µM (inactive) | 2.88 µM (inactive) | 15.4 µM (inactive) | 3.01 µM (inactive) |  | 11.9 µM (inactive) | 3.02 µM (inactive) | 15.9 µM (inactive) | 1.8 µM (inactive) | 1.86 µM (inactive) | 0.253 µM (active) | 14.2 µM (inactive) | 12.9 µM (inactive) |  | 1.04 µM (active) | 10.9 µM (inactive) | 
CCOC(=O)C(/N=N\c1ccc(S(N)(=O)=O)cc1)C(C)=O (configuration not stated) | > 100 µM (inactive) | > 100 µM (inactive) | > 100 µM (inactive) | > 100 µM (inactive) | > 100 µM (inactive) | > 100 µM (inactive) | > 100 µM (inactive) | > 100 µM (inactive) | > 100 µM (inactive) | > 100 µM (inactive) | > 100 µM (inactive) | > 100 µM (inactive) | > 100 µM (inactive) | > 100 µM (inactive) | > 100 µM (inactive) | > 100 µM (inactive) | > 100 µM (inactive) | > 100 µM (inactive) |  | 
COc1cc(C=O)c(-c2c(C=O)ccc3c2OCO3)c(OC)c1OC | > 100 µM (inactive) | 72.6 µM (inactive) | 78.3 µM (inactive) | 69.2 µM (inactive) | > 100 µM (inactive) | > 100 µM (inactive) | 55.2 µM (inactive) | 37.2 µM (inactive) | > 100 µM (inactive) | > 100 µM (inactive) | 89.3 µM (inactive) | 26.7 µM (inactive) | > 100 µM (inactive) | 76.2 µM (inactive) | > 100 µM (inactive) | 70.1 µM (inactive) | 33.8 µM (inactive) | 31.9 µM (inactive) |  | 
OCC(O)CNc1ccnc2cc(Cl)ccc12 (configuration not stated) | > 100 µM (inactive) | > 100 µM (inactive) | > 100 µM (inactive) | > 100 µM (inactive) | > 100 µM (inactive) | > 100 µM (inactive) | > 100 µM (inactive) | > 100 µM (inactive) | > 100 µM (inactive) | > 100 µM (inactive) | > 100 µM (inactive) | > 100 µM (inactive) | > 100 µM (inactive) | > 100 µM (inactive) | > 100 µM (inactive) | > 100 µM (inactive) | > 100 µM (inactive) | > 100 µM (inactive) |  | 
O=S(=O)(SCCCCSS(=O)(=O)c1ccc(Cl)cc1)c1ccc(Cl)cc1 | 14.4 µM (inactive) | 14.7 µM (inactive) | 9.68 µM (inactive) | 17.3 µM (inactive) | 16.6 µM (inactive) | 16.6 µM (inactive) | 11.4 µM (inactive) | 20 µM (inactive) | 5.2 µM (inactive) | 12.2 µM (inactive) | 10.5 µM (inactive) | 3.24 µM (inactive) | 9.04 µM (inactive) | 2.73 µM (inactive) | 14.9 µM (inactive) | 8.36 µM (inactive) | 1.85 µM (inactive) | 12.7 µM (inactive) |  | 
COc1cc(Nc2cnc3cc(N)ccc3n2)cc(OC)c1OC | 34.1 µM (inactive) | 53.8 µM (inactive) | > 100 µM (inactive) | 62.5 µM (inactive) | > 100 µM (inactive) | > 100 µM (inactive) | > 100 µM (inactive) | 42.3 µM (inactive) | > 100 µM (inactive) | 78.2 µM (inactive) | > 100 µM (inactive) | 40.1 µM (inactive) | 61.2 µM (inactive) | 52.2 µM (inactive) | > 100 µM (inactive) | 65.2 µM (inactive) | 40.3 µM (inactive) | 83.4 µM (inactive) |  | 
